# Experimental data taken from patent US20030082227A1, “Transdermal device comprising a reservoir and a matrix containing the same active principle” (priority 1999, published 2003).
# Test: Solubility of testosterone in tetrahydrofuran
# Assay type: physicochemical
smiles,measurement,value
"C[C@]12CC[C@H]3[C@@H](CCC4=CC(=O)CC[C@@]43C)[C@@H]1CC[C@@H]2O [testosterone, 17β-hydroxyandrost-4-en-3-one]",solubility of testosterone in THF,~27 % m/m
